Assay results as given in patent US10077243B2, “Compounds for treating disorders mediated by metabotropic glutamate receptor 5, and methods of use thereof” (Sunovion Pharmaceuticals Inc., priority 2009, dated 2018).

Molecular target: T1, human mGluR5 (Homo sapiens, UniProt P41594)
T1 construct: expressed in transfected cells; host or cells: HEK293 cells stably expressing rat GLAST (EAAT1), stably transfected with pcDNAzeo3.1 carrying synthetic human mGluR5 DNA; zeocin-selected single clones
Assay: In vitro cell-based FLIPR calcium assay for positive modulation of the activation of mGluR5 by glutamate (PAM EC50)
Conditions: HEK293/GLAST cells expressing recombinant human mGluR5; FLIPR calcium signal; glutamate added at its EC20; read-out: mGluR5 PAM EC50
From the text: The DNA sequences encoding the structural regions for rat mGluR5 [Abe T, Sugihara H, Nawa H, Shigemoto R, Mizuno N, Nakanishi S (1992) “Molecular characterization of a novel metabotropic glutamate receptor mGluR5 coupled to inositol phosphate/Ca^2+ signal transduction” Journal of Biological Chemistry vol. 267, no. 19, pp. 13361-8] and human mGluR5 [Daggett L P, Sacaan A I, Akong M, Rao S P, Hess S D, Liaw C, Urrutia A, Jachec C, Ellis S B, Dreessen J, Knöpfel T, Landwehrmeyer G B, Testa C M, Young A B, Varney M, Johnson E C, Veliçelebi (1995) “Molecular and functional characterization of recombinant human metabotropic glutamate receptor subtype 5” Neuropharmacology vol. 34, no. […] 53, no. 3, pp. 355-369] was obtained from Dr. Michael Robinson of the Children's Hospital of Philadelphia under a Material Transfer Agreement. The pcDNAzeo3.1 vector DNA, carrying either rat mGluR5 or human mGluR5, was used to transfect a sample of the HEK293/GLAST cells, and single clones that express mGluR5 were isolated from the transfected cells using zeocin selection. Expression of mGluR5 was assessed by measurement of the transient fluorescence signal elicited from HEK293/GLAST/mGluR5 cells by glutamate following the loading of the cells with a calcium-sensitive dye using a FLIPR Tetra (Fluorometric Imaging Plate Reader) (Molecular Devices, Sunnyvale, Calif.) [O'Brien J A, Lemaire W, Chen T B, Chang R S, Jacobson M A, Ha S N, Lindsley C W, Schaffhauser H J, Sur C, Pettibone D J, Conn P J, Williams D L Jr. […] 64, no. 3, pp. 731-740; Assay Guidance Manual Version 5.0, 2008, Eli Lilly and Company and NIH Chemical Genomics Center; available online HEK293/GLAST/mGluR5 cells were grown in Dulbecco's Modified Eagle Medium (DMEM) supplemented with 10% dialyzed fetal bovine serum, 20 millimolar (mM) N-2-hydroxyethylpiperazine-N′-2-ethanesulfonic acid (HEPES), penicillin, streptomycin, 1% GlutaMax™ (Invitrogen) and 50 μg/ml zeocin. Cells were grown in the media to 70-80% confluency at 37° C. under 5% CO2, 95% humidity in poly-D-lysine coated coated flasks. Cells for assays were plated into 96-well sterile standard microtiter plates (pre-coated with poly-D-lysine) at a density of 50,000 cells per well in 0.2 milliliters of media. Plated cells were allowed to settle and adhere for 30 minutes at ambient conditions, and then were incubated overnight at 37° C. under 5% CO2, 95% humidity. Several such 96-well plates were typically prepared. On the day of the assays, the components of the FLIPR calcium 4 assay kit (Molecular Devices) were dissolved according to the instructions of the dye kit's manufacturer in assay buffer (Hank's balanced salt solution (HBSS) (Gibco) supplemented with 20 mM HEPES). After removal of the growth media from the first plate, cells were loaded with calcium dye by addition of calcium dye solution (50 microliters per well) and incubation at 25° C. for 45 to 60 minutes. The first plate was placed into the FLIPR Tetra, and a dilution series of glutamate solutions in assay buffer were added to wells on the plate, followed by acquisition of fluorescence data for several minutes. The fluorescence data (maximal signal as a 4-parameter sigmoidal function of log [glutamate]) were processed by non-linear regression methods using the software package GraphPad Prism 5.01 (GraphPad Software Inc.), to yield a glutamate concentration-response curve (CRC). […] These values were, respectively, the concentrations of glutamate that elicit 20%, 50%, and 80% of the maximal FLIPR signal (observed at saturating [glutamate]). The method for measuring the concentration response of a potentiator, or positive allosteric modulator (PAM), is described here as an example. For that purpose, subsequent assays were typically performed using assay buffer containing a glutamate concentration equal to that day's EC20. […] Addition to certain wells of the same buffer containing 0.3% DMSO, but without any test compound, provided a negative control.

T1 sequence (P41594 21-1212): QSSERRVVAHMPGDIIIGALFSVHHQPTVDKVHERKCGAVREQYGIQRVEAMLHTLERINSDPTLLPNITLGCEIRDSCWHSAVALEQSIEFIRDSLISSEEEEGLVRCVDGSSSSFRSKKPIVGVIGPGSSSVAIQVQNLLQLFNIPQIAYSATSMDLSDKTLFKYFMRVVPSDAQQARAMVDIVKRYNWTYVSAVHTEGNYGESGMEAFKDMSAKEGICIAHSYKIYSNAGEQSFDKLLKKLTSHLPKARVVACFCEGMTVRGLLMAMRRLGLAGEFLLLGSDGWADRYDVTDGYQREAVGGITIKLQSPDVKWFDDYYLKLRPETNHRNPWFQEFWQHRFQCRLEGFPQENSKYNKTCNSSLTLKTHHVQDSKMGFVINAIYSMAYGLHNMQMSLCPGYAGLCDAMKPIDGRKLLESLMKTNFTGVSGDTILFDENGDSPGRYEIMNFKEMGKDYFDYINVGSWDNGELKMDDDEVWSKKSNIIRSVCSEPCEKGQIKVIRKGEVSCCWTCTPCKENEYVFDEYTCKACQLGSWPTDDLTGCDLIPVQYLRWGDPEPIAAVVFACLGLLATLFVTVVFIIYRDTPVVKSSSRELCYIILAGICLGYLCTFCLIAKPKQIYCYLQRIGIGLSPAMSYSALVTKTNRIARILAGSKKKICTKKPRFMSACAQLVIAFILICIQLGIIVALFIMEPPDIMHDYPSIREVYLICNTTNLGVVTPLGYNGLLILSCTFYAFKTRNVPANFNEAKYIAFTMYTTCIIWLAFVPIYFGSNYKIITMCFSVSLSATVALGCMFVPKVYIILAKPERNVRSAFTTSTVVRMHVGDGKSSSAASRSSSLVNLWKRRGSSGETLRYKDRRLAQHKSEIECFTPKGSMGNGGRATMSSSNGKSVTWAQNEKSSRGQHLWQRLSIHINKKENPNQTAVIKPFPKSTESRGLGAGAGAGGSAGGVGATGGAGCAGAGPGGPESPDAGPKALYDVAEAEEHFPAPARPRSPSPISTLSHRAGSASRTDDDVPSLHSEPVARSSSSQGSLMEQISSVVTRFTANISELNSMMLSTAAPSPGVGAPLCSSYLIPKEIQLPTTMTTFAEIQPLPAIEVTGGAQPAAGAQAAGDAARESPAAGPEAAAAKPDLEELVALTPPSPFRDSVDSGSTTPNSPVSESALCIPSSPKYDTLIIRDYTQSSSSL

Row | EC50 [µM] | Structure (SMILES)
1 | < 0.01 | O=c1c2ccc(C#Cc3cccc(F)c3)cc2nc2n1CCOC2 [Example 4.1, 9-((3-fluorophenyl)ethynyl)-3,4-dihydro-[1,4]oxazino[3,4-b]quinzolin-6(1H)-one]
2 | 0.03 to 0.1 | O=c1c2ccc(C#Cc3ccc(F)cc3)cc2nc2n1CCOC2 [Example 4.2, 9-((4-fluorophenyl)ethynyl)-3,4-dihydro-[1,4]oxazino[3,4-b]quinazolin-6(1H)-one]
3 | < 0.01 | O=c1c2ccc(C#Cc3cccc(F)c3)cc2nc2n1CCCC2 [Example 4.4]
4 | < 0.01 | O=c1c2ccc(C#Cc3ccc(F)cc3)cc2nc2n1CCCC2 [Example 4.5, 3-((4-fluorophenyl)ethynyl)-8,9-dihydro-6H-pyrido[2,1-b]quinazolin-11(7H)-one]
5 | 0.01 to 0.03 | C=CCC1CCCn2c1nc1cc(C#Cc3cccc(F)c3)ccc1c2=O (stereo not shown) [Example 4.7, 6-allyl-3-((3-fluorophenyl)ethynyl)-8,9-dihydro-6H-pyrido[2,1-b]quinazolin-11(7H)-one]
6 | 0.1 to 0.3 | CCC1CCCn2c1nc1cc(C#Cc3cccc(F)c3)ccc1c2=O (stereo not shown) [Example 4.8, 6-ethyl-3-((3-fluorophenyl)ethynyl)-8,9-dihydro-6H-pyrido[2,1-b]quinazolin-11(7H)-one]
7 | < 0.01 | CC1CCn2c(nc3cc(C#Cc4cccc(F)c4)ccc3c2=O)C1 (stereo not shown) [Example 4.10, 3-((3-fluorophenyl)ethynyl)-7-methyl-8,9-dihydro-6H-pyrido[2,1-b]quinazolin-11(7H)-one]
8 | < 0.01 | CC1(C)CCn2c(nc3cc(C#Cc4cccc(F)c4)ccc3c2=O)C1 [Example 4.13, 3-((3-fluorophenyl)ethynyl)-7,7-dimethyl-8,9-dihydro-6H-pyrido[2,1-b]quinazolin-11(7H)-one]
9 | < 0.01 | CC1(C)CCc2nc3cc(C#Cc4cccc(F)c4)ccc3c(=O)n2C1 [Example 4.14, 3-((3-fluorophenyl)ethynyl)-8,8-dimethyl-8,9-dihydro-6H-pyrido[2,1-b]quinazolin-11(7H)-one]
10 | 0.01 to 0.03 | CC1CCCc2nc3cc(C#Cc4cccc(F)c4)ccc3c(=O)n21 (stereo not shown) [Example 4.17, 3-((3-fluorophenyl)ethynyl)-9-methyl-8,9-dihydro-6H-pyrido[2,1-b]quinazolin-11(7H)-one]
11 | 0.01 to 0.03 | O=c1c2ccc(C#Cc3cccc(F)c3)cc2nc2n1CC1(CC2)OCCO1 [Example 4.21, 3′((3-fluorophenyl)ethynyl)-6′,7′-dihydrospiro[[1,3]dioxolane-2,8′-pyrido[2,1-b]quinazolin]-11′(9′H)-one]
12 | 0.03 to 0.1 | O=C1CCc2nc3cc(C#Cc4cccc(F)c4)ccc3c(=O)n2C1 [Example 4.22, 3-((3-fluorophenyl)ethynyl)-6H-pyrido[2,1-b]quinazoline-8,11(7H,9H)-dione]
13 | 0.03 to 0.1 | O=c1c2ccc(C#Cc3cccc(F)c3)cc2nc2n1CC(O)CC2 (stereo not shown) [Example 4.23, 3-((3-fluorophenyl)ethynyl)-8-hydroxy-8,9-dihydro-6H-pyrido[2,1-b]quinazolin-11(7H)-one]
14 | < 0.01 | COC1CCc2nc3cc(C#Cc4cccc(F)c4)ccc3c(=O)n2C1 (stereo not shown) [Example 4.25, 3-((3-fluorophenyl)ethynyl)-8-methoxy-8,9-dihydro-6H-pyrido[2,1-b]quinazolin-11(7H)-one]
15 | 0.01 to 0.03 | C=C1CCc2nc3cc(C#Cc4cccc(F)c4)ccc3c(=O)n2C1 [Example 4.28, 3-((3-fluorophenyl)ethynyl)-8-methylene-8,9-dihydro-6H-pyrido[2,1-b]quinazolin-11(7H)-one]
16 | 0.1 to 0.3 | CN(C)C1CCc2nc3cc(C#Cc4cccc(F)c4)ccc3c(=O)n2C1 (stereo not shown) [Example 4.30, 8-(dimethylamino)-3-((3-fluorophenyl)ethynyl)-8,9-dihydro-6H-pyrido[2,1-b]quinazolin-11(7H)-one]
17 | < 0.01 | O=c1c2ccc(C#Cc3cccc(F)c3)cc2nc2n1CC(CO)CC2 (stereo not shown) [Example 4.31, 3-((3-fluorophenyl)ethynyl)-8-(hydroxymethyl)-8,9-dihydro-6H-pyrido[2,1-b]quinazolin-11(7H)-one]

The next lines start with the molecule.

Row | Structure (SMILES) | EC50 [µM]
18 | CC1(C)Cc2nc3cc(C#Cc4ccccn4)ccc3c(=O)n2C1 [Example 3.20, 2,2-dimethyl-6-(pyridin-2-ylethynyl)-2,3-dihydropyrrolo[2,1-b]quinazolin-9(1H)-one] | < 0.01
19 | O=c1c2ccc(C#Cc3ccccn3)cc2nc2n1CC1(CCOCC1)C2 [Example 3.24, 6′-(pyridin-2-ylethynyl)-2,3,5,6-tetrahydro-1′H-spiro[pyran-4,2′-pyrrolo[2,1-b]quinazolin]-9′(3′H)-one] | 0.01 to 0.03
20 | O=c1c2ccc(C#Cc3ccccn3)cc2nc2n1C1CCC2C1 (stereo not shown) [Example 3.25, 3-(pyridin-2-ylethynyl)-8,9-dihydro-6H-6,9-methanopyrido[2,1-b]quinazolin-11(7H)-one] | 0.01 to 0.03
21 | O=c1c2ccc(C#Cc3cccc(F)c3)cc2nc2n1CCCC2Cc1ccccc1 (stereo not shown) [Example 4.9, 6-benzyl-3-((3-fluorophenyl)ethynyl)-8,9-dihydro-6H-pyrido[2,1-b]quinazolin-11(7H)-one] | 0.1 to 0.3
22 | CC1CCn2c(nc3cc(C#Cc4ccccn4)ccc3c2=O)C1 (stereo not shown) [Example 4.11, 7-methyl-3-(pyridin-2-ylethynyl)-8,9-dihydro-6H-pyrido[2,1-b]quinazolin-11(7H)-one] | 0.03 to 0.1
23 | CC1CCc2nc3cc(C#Cc4ccccn4)ccc3c(=O)n2C1 (stereo not shown) [Example 4.12, 8-methyl-3-(pyridin-2-ylethynyl)-8,9-dihydro-6H-pyrido[2,1-b]quinazolin-11(7H)-one] | 0.01 to 0.03
24 | CC1(C)CCn2c(nc3cc(C#Cc4ccccn4)ccc3c2=O)C1 [Example 4.15, 7,7-dimethyl-3-(pyridin-2-ylethynyl)-8,9-dihydro-6H-pyrido[2,1-b]quinazolin-11(7H)-one] | < 0.01
25 | CC1(C)CCc2nc3cc(C#Cc4ccccn4)ccc3c(=O)n2C1 [Example 4.16, 8,8-dimethyl-3-(pyridin-2-ylethynyl)-8,9-dihydro-6H-pyrido[2,1-b]quinazolin-11(7H)-one] | < 0.01
26 | CC1CCCc2nc3cc(C#Cc4ccccn4)ccc3c(=O)n21 (stereo not shown) [Example 4.18, 9-methyl-3-(pyridin-2-ylethynyl)-8,9-dihydro-6H-pyrido[2,1-b]quinazolin-11(7H)-one] | 0.01 to 0.03
27 | CCC1CCCc2nc3cc(C#Cc4ccccn4)ccc3c(=O)n21 (stereo not shown) [Example 4.19, 9-ethyl-3-(pyridin-2-ylethynyl)-8,9-dihydro-6H-pyrido[2,1-b]quinazolin-11(7H)-one] | 0.01 to 0.03
28 | O=c1c2ccc(C#Cc3cccc(F)c3)cc2nc2n1CCC=C2 [Example 4.20, 3-((3-fluorophenyl)ethynyl)-8H-pyrido[2,1-b]quinazolin-11(9H)-one] | 0.01 to 0.03
29 | O=c1c2ccc(C#Cc3ccccn3)cc2nc2n1CC(O)CC2 (stereo not shown) [Example 4.24, 8-hydroxy-3-(pyridin-2-ylethynyl)-8,9-dihydro-6H-pyrido[2,1-b]quinazolin-11(7H)-one] | 0.3 to 1
30 | COC1CCc2nc3cc(C#Cc4ccccn4)ccc3c(=O)n2C1 (stereo not shown) [Example 4.26, 8-methoxy-3-(pyridin-2-ylethynyl)-8,9-dihydro-6H-pyrido[2,1-b]quinazolin-11(7H)-one] | 0.03 to 0.1
31 | O=c1c2ccc(C#Cc3ccccn3)cc2nc2n1CC1CC21 (stereo not shown) [Example 4.27, 4-(pyridin-2-ylethynyl)-9,9a-dihydro-1H-cyclopropa[3,4]pyrrolo[2,1-b]quinazolin-7(1aH)-one] | 0.03 to 0.1
